Target: T1, DDR1 phosphorylation in kidney (Mus musculus, UniProt Q03146)
T1 construct: from tissue; host or cells: kidney of C57BL/6J mice (UUO model)
T1 sequence (Q03146 20-911): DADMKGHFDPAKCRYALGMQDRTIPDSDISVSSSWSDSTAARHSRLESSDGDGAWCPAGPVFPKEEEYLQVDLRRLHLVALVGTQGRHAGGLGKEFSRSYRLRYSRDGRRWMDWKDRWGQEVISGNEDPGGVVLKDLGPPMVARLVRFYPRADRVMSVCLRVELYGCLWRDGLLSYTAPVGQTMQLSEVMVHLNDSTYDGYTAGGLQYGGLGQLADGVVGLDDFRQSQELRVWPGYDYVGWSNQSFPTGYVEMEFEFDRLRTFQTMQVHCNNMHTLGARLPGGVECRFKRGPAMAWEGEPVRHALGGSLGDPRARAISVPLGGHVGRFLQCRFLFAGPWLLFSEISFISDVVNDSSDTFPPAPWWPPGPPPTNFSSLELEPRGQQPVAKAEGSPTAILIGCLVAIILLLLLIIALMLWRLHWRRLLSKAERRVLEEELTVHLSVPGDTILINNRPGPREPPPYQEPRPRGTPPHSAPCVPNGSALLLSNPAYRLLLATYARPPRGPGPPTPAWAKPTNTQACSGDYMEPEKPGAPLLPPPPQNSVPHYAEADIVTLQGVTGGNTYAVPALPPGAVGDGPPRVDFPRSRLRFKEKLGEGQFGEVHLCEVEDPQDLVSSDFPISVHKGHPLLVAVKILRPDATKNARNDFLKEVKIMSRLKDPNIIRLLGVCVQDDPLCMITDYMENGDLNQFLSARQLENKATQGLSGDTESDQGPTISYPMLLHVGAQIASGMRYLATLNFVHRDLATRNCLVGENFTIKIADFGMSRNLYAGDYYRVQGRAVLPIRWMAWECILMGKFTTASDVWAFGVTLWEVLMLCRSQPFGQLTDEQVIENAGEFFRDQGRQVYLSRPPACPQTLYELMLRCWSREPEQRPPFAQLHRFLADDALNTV
Test: Measurement of DDR1 phosphorylation suppression rate by using UUO (unilateral ureteral obstruction) model (in vivo test)
Design: species or system C57BL/6J mice
Conditions: UUO mice, dose of 10 mg/kg, oral single dose, kidney 8 h after dosing, relative to the difference between the untreated group and control group
Experimental: Biological Example 4: Measurement of DDR1 phosphorylation suppression rate by using UUO (unilateral ureteral obstruction) model (in vivo test).
Species & Strain: C57BL/6J mice
Mice were randomly assigned to respective groups based on the animal's body weight.
Surgery was performed in male C57BL/6J mice on Day 0. With the mice under anesthesia, operation area was disinfected with 75% alcohol after shaving. Mice in UUO group were exposed left ureter through a small incision on the left side of the abdomen and ligated with 3-0 silk at two locations about 0.5 cm below the renal hilum. Normal control mice were had their ureters manipulated but not ligated. Zoletil combined with Xylazine (20:1, v:v) were used in this study, the final dose of Zoletil was 25 mg/kg.
Route: oral administration
Dosage: 1, 3 and 10 mg/kg
Body weights of all animals were measured prior surgery and prior dosing. Clinical observations of all animals were monitored and recorded daily throughout the study. […]
On Day 3, all animals were euthanized with carbon dioxide. […] Then the samples were analyzed by Elisa.
DDR1 and p-DDR1 levels in ipsilateral kidney samples were analyzed by Elisa method. […]
All statistical tests were conducted, and the level of significance was set at 5% or P<0.05. The group means and standard deviation were calculated for all measurement parameters as study designed. […]

- DDR1 phosphorylation suppression: 50%
Compound: Cc1cc(Oc2ccnc(N)n2)ccc1N1C(=O)CN(c2ccc(F)c(OC(F)(F)F)c2)C1=O [Example 3(110), 3-{4-[(2-amino-4-pyrimidinyl)oxy]-2-methylphenyl}-1-[4-fluoro-3-(trifluoromethoxy)phenyl]-2,4-imidazolidinedione]

— patent US20220306640A1, “HYDANTOIN DERIVATIVE” (ONO PHARMACEUTICAL CO., LTD., priority 2019, published 2022)
